Source: the METLIN SMRT retention time set (Domingo-Almenara et al. 2019)

Assay: gradient 5% acetonitrile 3 min, to 50% in 2 min, to 85% in 15 min, held 3 min, 100 µL/min
Settings: column: Zorbax Extend-C18 2.1 x 50 mm; eluents: water / acetonitrile, 0.1% formic acid
Outline: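 Pure standards were analyzed in mixtures of ~100 molecules using HPLC coupled to a quadrupole time-of-flight mass spectrometer, in both positive and negative ionization mode. Separation used a Zorbax Extend-C18 column (2.1 × 50 mm, 1.8 μm) at 100 μL/min, with water and acetonitrile each containing 0.1% formic acid. Dead and dwell volumes were 40 μL and 900 μL, and data were collected over 3 months. Retention time was read from computationally picked adduct peaks, each inspected manually.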

Compound | RP-LC retention time [s]
COc1ccc(C(=O)Nc2nnc(SCc3nnc(-c4ccccc4C)o3)s2)cc1 | 966
COc1cccc(-c2ccnc3nc(-c4ccccc4OC)nn23)c1 | 860
C=Cc1ccc(Cn2cc(S(=O)(=O)N3CCCCC3)ccc2=O)cc1 | 968
CCn1ncc(N2CCCC(CC(=O)N3CCSCC3)C2)cc1=O (configuration not stated) | 684
O=C(CN1C(=O)CC(c2cccs2)=Nc2ccccc21)Nc1ccccc1F | 910
O=C(CCc1c(-c2ccc(Cl)cc2)nc2ccccn12)NCc1ccccc1F | 688
CCCN1C(=O)C(C)(C(=O)NCc2ccccc2Cl)Oc2cccnc21 (configuration not stated) | 942
O=C(Nc1cccc(F)c1)N1CCN(Cc2nc3ccc(Cl)cc3o2)CC1 | 784
Cc1cccc(-c2ncccc2CNS(=O)(=O)c2ccc(Cl)cc2)c1 | 778
CCCCCCOC(=O)[C@@]1(O)CC2O[C@]1(C)n1c3ccccc3c3c4c(c5c6ccccc6n2c5c31)C(=O)NC4 | 1230
O=C(NCCc1ccccc1)C(=O)NCC1OCCc2ccccc21 (configuration not stated) | 946
CCC(C(=O)Nc1cnn(-c2ncc(N(C)C)cn2)c1)c1ccccc1 (configuration not stated) | 811
CCc1nc(-c2ccc(-c3noc(COc4ccc(OC)cc4)n3)cc2)cs1 | 1270
CCOC(=O)c1c(C)[nH]c(CCC(=O)NCc2cn[nH]c2C)c1C | 626
Cc1ccccc1-c1noc(CN2N=NC3C(=O)N(c4ccc(F)c(F)c4)C(=O)C32)n1 (configuration not stated) | 804
CC(C)c1ccc(NC(=O)C2CCN(C(=O)c3ncn4c3COC(c3ccccc3)C4)CC2)cc1 (configuration not stated) | 914
COc1ccc(NC(=O)N2CC(C)Oc3ccc(C)cc32)cc1OC (configuration not stated) | 921
CCOc1ccc(S(=O)(=O)N2CCCC(C(=O)N3CCOCC3)C2)cc1 (configuration not stated) | 777
Nc1c(Cl)ncnc1NCCO | 557
CCOC(=O)c1cccc(Nc2c(-c3ccc(C(=O)O)cc3)nc3cnccn23)c1 | 726
O=C1[C@H]2CN(Cc3c[nH]c4ccccc34)C[C@H]2C(=O)N1CCc1ccccc1 | 692
CC(C)CC(=O)N1CCc2c(c(-c3nnc(-c4ccccc4Cl)o3)nn2C)C1 | 852
COc1ccc(Cl)cc1NC(=O)CN1C(=O)CC(C)Sc2ccccc21 (configuration not stated) | 926

Compound | RP-LC retention time [s]
O=C(NC1CCCC1)c1cccc2c1CCN2C(=O)c1ccc(F)cc1 | 862
COC(=O)c1sccc1S(=O)(=O)N1CCN(S(=O)(=O)C2CC2)CC1 | 717
Cc1ccc(-n2c(N3CCCC(C(=O)Nc4ccc(F)c(C)c4)C3)nc3ccsc3c2=O)cc1 (configuration not stated) | 1040
O=C(NCc1ccc(F)cc1F)c1ccc(Cn2c(C(F)(F)F)nc3cccnc32)cc1 | 925
COc1ccc(S(=O)(=O)NCc2cccnc2-c2ccc(C)cc2)cc1Cl | 743
O=C(NC1CCCCC1)C1CCCN(S(=O)(=O)c2cc(-c3noc(C4CCCC4)n3)cs2)C1 (configuration not stated) | 1220
CCN1C(=O)CCc2cc(NS(=O)(=O)c3cccc(Cl)c3)ccc21 | 1000
Cc1cc(NC(=O)c2ccc3c(c2)OCO3)sn1 | 682
O=C(NC1CN2CCC1CC2)c1cc2ccoc2cn1 (configuration not stated) | 620
Cc1nc(-c2cn(C(C)C)c3ncccc23)sc1C(=O)NCc1cccs1 | 970
OC1(c2ccccn2)CCOC2(CCN(Cc3c(F)cccc3Cl)CC2)C1 (configuration not stated) | 560
CCOc1ccccc1NC(=O)C1CCN(S(C)(=O)=O)c2cc(Cl)ccc2O1 (configuration not stated) | 910
CCCOc1ccccc1C(=O)Nc1nonc1-c1ccccc1 | 991
COC(=O)c1c(NCCc2c[nH]c3ccccc23)c2cc(F)ccc2[nH]c1=O | 770
CC1CCN(Cc2csc(N3CCN(C(=O)COc4ccccc4)CC3)n2)CC1 | 653
COc1c(C(=O)NCc2ccc3c(c2)OCO3)sc2cc(Cl)ccc12 | 1070
COc1ccc(N2CCN(C(=O)C3CC(=O)N(c4ccc(C)c(C)c4)C3)CC2)nn1 (configuration not stated) | 594
Cc1nc2ccn(Cc3cccnc3)c(=O)c2cc1C(=O)NCCCc1ccco1 | 625
COCC1(O)CCOC2(CCN(Cc3cccc(Cl)c3)CC2)C1 (configuration not stated) | 612
COC(=O)C1C(=O)C2=C(CC1C)NC(C)=C(C(=O)OC(C)C)C2c1ccccc1OC (configuration not stated) | 908
COc1ccc(NC(=O)c2cc(NC(=O)C3CCC3)cc3nc(C)ccc23)cc1OC | 640
COCCCn1cc(C(=O)N2CCCC2)c2nn(-c3ccccc3)c(=O)c-2c1 | 647
CCN1C(=O)Cc2cc(C(=O)NC3CCCCCC3)ccc21 | 797

Compound | RP-LC retention time [s]
CCN(CCNC(=O)c1cc2c(s1)CN(C(C)C)C2)c1cccc(C)c1 | 573
Cc1cccc(C(=O)N2C[C@H](c3nc(-c4ccccc4)no3)[C@@H](C)C2)c1 | 731
O=C(Cn1cccc1-c1nnc(-c2ccccc2)o1)N1CCN(c2ccc(Cl)cc2)CC1 | 1100
CN(C)CC1CN(C(=O)c2ccc3c(c2)OCO3)CC12CCOCC2 (configuration not stated) | 562
O=C(CS(=O)(=O)Cc1ccccc1)Nc1nc(-c2ccccc2)cs1 | 956
Cc1ccc(-c2ncccc2CNS(=O)(=O)c2ccc(C#N)cc2)cc1 | 688
Cc1ccc(NC(=O)C(=O)NCC2(O)CCOCC2)cc1N1CCCC1=O | 575
COCCN1CCC(N2CCCN(C(=O)NCCc3ccccc3)CC2)C1=O (configuration not stated) | 526
COc1c(C(=O)NC(C)C)sc2ccc(Cl)cc12 | 1060
COC(c1ccccc1)(c1ccccc1)[C@H](Oc1nc(C)cc(C)n1)C(=O)O | 913
CC1Oc2ccc(S(=O)(=O)N3CCC(C(=O)Nc4ccc(F)cc4)CC3)cc2NC1=O (configuration not stated) | 829
Cc1ccc(NC(=O)COc2cc(C)nc(N3CCN(c4ccccc4)CC3)n2)cc1 | 852
O=C(CC1CCCC1)N1CC(c2nc(-c3ccccc3)no2)C2(CCOCC2)C1 (configuration not stated) | 923
CCOC(=O)c1cc(NC(=O)Nc2cccc(OC)c2)c(C)nc1C | 701
CC(C)c1ccc(C(=O)Nc2cc(-c3ccccn3)no2)cc1 | 960
Cc1oc2c(c1C(=O)NC(C)c1ccccc1)C1=NC(C)(C)CN1C=N2 (configuration not stated) | 653
COc1ccc(N2CCN(C(=O)C3CCN(S(=O)(=O)c4cn(C(C)C)cn4)CC3)CC2)cc1 | 706
CC(C)c1ccc(CNC(=O)c2ccc3ncnc(N4CCOCC4)c3c2)cc1 | 708
O=C(N[C@@H]1CN(c2ncccn2)C[C@H]1CO)C1CC=CC1 | 567
CN(Cc1ccccc1)C(=O)c1ccc2c(c1)CCCN2S(C)(=O)=O | 841
CCN1CCN(C(=O)Cc2csc(-n3nc(C)c(Cl)c3C)n2)CC1 | 691
